# Test results from ChEMBL document CHEMBL1145631, “Development of a fluorescence polarization based assay for histone deacetylase ligand discovery” (Bioorg Med Chem Lett, 2008).
# Assays:
# [1] = target: T1, Protein deacetylase HDAC6 (Homo sapiens, UniProt Q9UBN7)
# T1 sequence (Q9UBN7 whole entry): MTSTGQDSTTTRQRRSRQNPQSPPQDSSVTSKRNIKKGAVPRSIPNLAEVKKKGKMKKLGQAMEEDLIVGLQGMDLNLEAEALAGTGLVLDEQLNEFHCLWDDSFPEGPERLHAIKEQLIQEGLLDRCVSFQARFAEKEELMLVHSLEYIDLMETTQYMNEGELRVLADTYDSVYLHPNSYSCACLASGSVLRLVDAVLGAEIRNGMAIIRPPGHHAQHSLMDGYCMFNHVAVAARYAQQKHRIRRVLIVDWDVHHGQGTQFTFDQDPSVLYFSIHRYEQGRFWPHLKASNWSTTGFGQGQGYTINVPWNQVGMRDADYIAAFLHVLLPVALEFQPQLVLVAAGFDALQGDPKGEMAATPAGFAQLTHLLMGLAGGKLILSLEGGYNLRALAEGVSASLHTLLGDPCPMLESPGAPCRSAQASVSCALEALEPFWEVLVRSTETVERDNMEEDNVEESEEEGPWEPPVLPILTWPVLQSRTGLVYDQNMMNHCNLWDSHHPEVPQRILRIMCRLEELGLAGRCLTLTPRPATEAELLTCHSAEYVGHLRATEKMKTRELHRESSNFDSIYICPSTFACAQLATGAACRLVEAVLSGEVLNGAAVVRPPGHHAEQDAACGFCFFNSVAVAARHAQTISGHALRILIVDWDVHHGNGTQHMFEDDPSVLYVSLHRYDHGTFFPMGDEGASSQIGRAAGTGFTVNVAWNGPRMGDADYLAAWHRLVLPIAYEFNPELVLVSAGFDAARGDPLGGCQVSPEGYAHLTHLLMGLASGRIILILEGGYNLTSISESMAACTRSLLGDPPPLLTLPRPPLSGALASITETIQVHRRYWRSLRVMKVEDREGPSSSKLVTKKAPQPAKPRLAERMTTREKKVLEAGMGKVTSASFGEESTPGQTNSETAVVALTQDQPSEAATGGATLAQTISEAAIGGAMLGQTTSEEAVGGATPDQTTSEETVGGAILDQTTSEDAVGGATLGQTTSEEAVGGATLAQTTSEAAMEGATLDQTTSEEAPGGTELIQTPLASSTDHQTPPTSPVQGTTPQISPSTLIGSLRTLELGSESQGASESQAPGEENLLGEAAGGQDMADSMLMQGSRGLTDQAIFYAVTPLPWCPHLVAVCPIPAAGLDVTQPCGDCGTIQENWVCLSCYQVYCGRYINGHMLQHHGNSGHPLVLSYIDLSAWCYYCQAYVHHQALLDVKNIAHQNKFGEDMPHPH
# Description: Displacement of fluorescent 5-(3-(3-(4-((4-((7-(hydroxyamino)-7-oxoheptyl)carbamoyl)phenylamino)methyl)-1H-1,2,3-triazol-1-yl)propyl)thioureido)-2-(3-hydroxy-6-oxo-6H-xanthen-9-yl)benzoic acid from human HDAC6 by fluorescence polarization assay
# [2] = target: Histone deacetylase 3/Nuclear receptor corepressor 2 (HDAC3/NCoR2) (Homo sapiens, UniProt O15379); format: protein-complex assay
# Chain of Histone deacetylase 3/Nuclear receptor corepressor 2 (HDAC3/NCoR2) (O15379 whole entry): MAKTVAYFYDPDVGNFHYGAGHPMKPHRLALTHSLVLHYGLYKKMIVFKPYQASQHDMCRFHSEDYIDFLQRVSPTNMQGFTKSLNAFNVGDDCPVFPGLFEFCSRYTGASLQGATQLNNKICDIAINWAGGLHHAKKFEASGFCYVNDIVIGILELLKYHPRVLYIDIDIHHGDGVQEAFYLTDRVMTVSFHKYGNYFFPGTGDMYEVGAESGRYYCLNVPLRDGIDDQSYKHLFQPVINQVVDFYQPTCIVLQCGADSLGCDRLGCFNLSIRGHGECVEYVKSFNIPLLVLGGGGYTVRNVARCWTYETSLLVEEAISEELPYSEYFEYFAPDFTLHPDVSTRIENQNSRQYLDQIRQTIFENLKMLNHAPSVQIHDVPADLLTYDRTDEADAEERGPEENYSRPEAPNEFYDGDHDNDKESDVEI
# Chain of Histone deacetylase 3/Nuclear receptor corepressor 2 (HDAC3/NCoR2) (Q9Y618 whole entry, further chain): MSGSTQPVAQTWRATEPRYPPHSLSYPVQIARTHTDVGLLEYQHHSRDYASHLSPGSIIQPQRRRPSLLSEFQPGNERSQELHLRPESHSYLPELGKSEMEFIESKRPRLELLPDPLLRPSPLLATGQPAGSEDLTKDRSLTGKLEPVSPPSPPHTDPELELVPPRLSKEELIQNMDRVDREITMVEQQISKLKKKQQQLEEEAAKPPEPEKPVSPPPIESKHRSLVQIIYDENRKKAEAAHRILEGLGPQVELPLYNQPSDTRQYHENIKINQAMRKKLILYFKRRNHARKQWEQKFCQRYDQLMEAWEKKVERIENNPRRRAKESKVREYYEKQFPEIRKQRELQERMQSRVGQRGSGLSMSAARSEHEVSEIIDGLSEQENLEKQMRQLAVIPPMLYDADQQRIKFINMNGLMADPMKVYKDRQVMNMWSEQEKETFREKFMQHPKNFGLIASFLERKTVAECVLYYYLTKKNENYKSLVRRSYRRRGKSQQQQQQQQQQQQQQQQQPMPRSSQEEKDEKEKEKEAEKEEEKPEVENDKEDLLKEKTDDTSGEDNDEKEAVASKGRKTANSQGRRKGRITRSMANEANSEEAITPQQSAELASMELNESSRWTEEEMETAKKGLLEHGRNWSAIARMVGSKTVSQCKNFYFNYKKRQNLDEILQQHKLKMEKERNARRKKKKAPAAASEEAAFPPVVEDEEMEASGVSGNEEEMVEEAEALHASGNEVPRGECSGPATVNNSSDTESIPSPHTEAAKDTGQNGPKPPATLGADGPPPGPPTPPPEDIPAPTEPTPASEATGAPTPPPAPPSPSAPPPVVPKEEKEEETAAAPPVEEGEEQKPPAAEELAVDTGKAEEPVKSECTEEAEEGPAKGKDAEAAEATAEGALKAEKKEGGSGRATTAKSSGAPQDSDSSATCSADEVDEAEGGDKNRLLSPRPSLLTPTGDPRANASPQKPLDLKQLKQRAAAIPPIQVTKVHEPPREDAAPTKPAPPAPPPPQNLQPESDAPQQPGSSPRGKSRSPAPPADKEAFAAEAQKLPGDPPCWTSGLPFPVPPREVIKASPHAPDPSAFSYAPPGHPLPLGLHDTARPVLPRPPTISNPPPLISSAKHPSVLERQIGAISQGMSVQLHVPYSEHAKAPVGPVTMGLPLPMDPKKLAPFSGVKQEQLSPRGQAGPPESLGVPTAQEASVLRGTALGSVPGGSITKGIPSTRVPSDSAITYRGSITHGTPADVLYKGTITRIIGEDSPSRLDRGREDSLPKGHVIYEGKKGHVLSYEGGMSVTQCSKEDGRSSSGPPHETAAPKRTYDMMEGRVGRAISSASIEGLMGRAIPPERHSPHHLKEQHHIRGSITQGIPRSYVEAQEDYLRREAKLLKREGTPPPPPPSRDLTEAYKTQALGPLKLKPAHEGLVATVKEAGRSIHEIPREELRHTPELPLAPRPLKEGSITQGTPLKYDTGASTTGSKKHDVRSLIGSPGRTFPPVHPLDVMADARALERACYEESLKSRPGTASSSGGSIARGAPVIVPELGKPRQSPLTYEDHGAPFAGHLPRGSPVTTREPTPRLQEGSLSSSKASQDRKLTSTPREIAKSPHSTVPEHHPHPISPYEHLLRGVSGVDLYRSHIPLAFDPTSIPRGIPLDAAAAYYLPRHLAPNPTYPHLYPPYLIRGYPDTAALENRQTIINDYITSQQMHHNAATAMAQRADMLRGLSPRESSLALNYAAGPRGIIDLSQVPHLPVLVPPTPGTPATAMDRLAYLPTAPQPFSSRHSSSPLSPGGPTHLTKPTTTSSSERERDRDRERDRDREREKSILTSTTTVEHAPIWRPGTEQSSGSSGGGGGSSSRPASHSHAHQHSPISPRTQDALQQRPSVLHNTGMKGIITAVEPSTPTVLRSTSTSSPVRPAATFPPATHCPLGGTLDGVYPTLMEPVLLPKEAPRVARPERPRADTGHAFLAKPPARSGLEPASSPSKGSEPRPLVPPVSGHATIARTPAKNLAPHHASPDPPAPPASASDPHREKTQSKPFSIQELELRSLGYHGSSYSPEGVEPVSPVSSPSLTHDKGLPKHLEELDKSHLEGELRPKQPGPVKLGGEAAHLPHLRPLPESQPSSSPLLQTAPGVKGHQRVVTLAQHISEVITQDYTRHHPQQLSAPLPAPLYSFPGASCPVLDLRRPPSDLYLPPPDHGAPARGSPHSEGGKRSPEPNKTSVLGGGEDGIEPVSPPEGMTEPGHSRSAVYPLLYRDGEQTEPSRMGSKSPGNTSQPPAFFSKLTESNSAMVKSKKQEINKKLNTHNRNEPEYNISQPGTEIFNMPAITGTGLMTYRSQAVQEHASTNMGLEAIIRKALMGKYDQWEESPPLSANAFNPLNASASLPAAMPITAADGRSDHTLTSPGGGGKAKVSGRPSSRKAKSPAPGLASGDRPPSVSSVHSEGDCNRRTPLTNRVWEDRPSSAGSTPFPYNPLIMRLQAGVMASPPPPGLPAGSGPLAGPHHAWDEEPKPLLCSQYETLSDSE
# Description: Displacement of fluorescent 5-(3-(3-(4-((4-((7-(hydroxyamino)-7-oxoheptyl)carbamoyl)phenylamino)methyl)-1H-1,2,3-triazol-1-yl)propyl)thioureido)-2-(3-hydroxy-6-oxo-6H-xanthen-9-yl)benzoic acid from human HDAC3/NcoR2 by fluorescence polarization assay
# Histone deacetylase = format: protein assay, Homo sapiens
# Description: Displacement of fluorescent 5-(3-(3-(4-((4-((7-(hydroxyamino)-7-oxoheptyl)carbamoyl)phenylamino)methyl)-1H-1,2,3-triazol-1-yl)propyl)thioureido)-2-(3-hydroxy-6-oxo-6H-xanthen-9-yl)benzoic acid from HDAC in human HeLa nuclear cell extract by fluorescence polarization assay
structure (smiles),measurement,setting,value
O=C(CCCCCCNC(=O)c1ccc(NCc2cn(CCCNC(=S)Nc3ccc(-c4c5ccc(=O)cc-5oc5ccccc45)c(C(=O)O)c3)nn2)cc1)NO,Kd,[1],4.6 nM
same,Kd,[2],2 nM
NCCCn1cc(CNc2ccc(C(=O)NCCCCCCC(=O)NO)cc2)nn1,IC50,Histone deacetylase,58 nM
same,IC50,[1],50.8 nM
same,Ki,[1],6.6 nM
same,IC50,[2],137 nM
same,Ki,[2],23.1 nM
O=C1CCc2c(ccc3ccccc23)O1 [SPLITOMICIN],IC50,Histone deacetylase,> 75000 nM
same,IC50,[1],> 75000 nM
same,Ki,[1],> 75000 nM
same,IC50,[2],> 75000 nM
same,Ki,[2],> 75000 nM
